Data as given in patent publication US10266497B2 (ABIDE THERAPEUTICS, INC., priority 2017, dated 2019).

Tests used:
MAGL [1] = target: T1, MAGL (Mus musculus, UniProt O35678); test: In vitro competitive activity-based protein profiling, MAGL, mouse; conditions: read-out: MAGL % inh. 1 μM (mouse)
T1 sequence (O35678 1-303): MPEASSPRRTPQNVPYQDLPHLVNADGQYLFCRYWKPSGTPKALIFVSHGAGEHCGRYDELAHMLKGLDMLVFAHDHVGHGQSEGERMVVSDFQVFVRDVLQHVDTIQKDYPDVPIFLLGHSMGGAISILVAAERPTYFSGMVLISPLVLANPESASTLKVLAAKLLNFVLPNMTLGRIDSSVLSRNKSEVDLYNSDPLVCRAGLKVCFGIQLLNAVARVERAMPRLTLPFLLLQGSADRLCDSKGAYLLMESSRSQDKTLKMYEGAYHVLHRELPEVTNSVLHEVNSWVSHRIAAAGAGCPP

MAGL [2] = target: T2, MAGL (Homo sapiens, UniProt Q99685); test: In vitro competitive activity-based protein profiling, MAGL, human; conditions: for inhibition at 1 µM: read-out: MAGL % inh. 1 μM (human)
T2 sequence (Q99685 1-303): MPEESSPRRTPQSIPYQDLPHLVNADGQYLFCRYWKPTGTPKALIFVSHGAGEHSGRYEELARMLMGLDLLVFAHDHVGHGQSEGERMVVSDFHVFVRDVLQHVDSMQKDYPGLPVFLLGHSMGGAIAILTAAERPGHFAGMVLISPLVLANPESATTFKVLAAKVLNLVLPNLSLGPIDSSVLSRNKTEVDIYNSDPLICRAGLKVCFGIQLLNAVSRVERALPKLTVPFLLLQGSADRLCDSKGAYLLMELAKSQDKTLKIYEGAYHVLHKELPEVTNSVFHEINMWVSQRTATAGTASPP

Compound	inhibition at 1 µM (MAGL [1]) [%]	inhibition at 1 µM (MAGL [2]) [%]	inhibition at 10 µM (MAGL [2]; read-out: MAGL % inh. (human) at 10 uM) [%]
O=C(O)c1ccn(C(=O)N2CCC(OCc3cc(N4CCCC4)cc(C(F)(F)F)c3)CC2)n1 [Example 331, 1-(4-((3-(pyrrolidin-1-yl)-5-(trifluoromethyl)benzyl)oxy)piper-idine-1-carbonyl)-1H-pyrazole-3-carboxylic acid]	> 75	> 75	
O=C(O)c1ccn(C(=O)N2CCN(Cc3ccc(C(F)(F)F)cc3N3CC[C@H](O)C3)CC2)n1 [Example 332, (S)-1-(4-(2-(3-hydroxypyrrolidin-1-yl)-4-(trifluoromethyl)benzyl)piperazine-1-carbonyl)-1H-pyrazole-3-carboxylic acid]	> 75	> 75	
O=C(O)c1ccn(C(=O)N2CCN(Cc3ccc(C(F)(F)F)cc3N3CC[C@@H](O)C3)CC2)n1 [Example 333, (R)-1-(4-(2-(3-hydroxypyrrolidin-1-yl)-4-(trifluoromethyl)benzyl)piperazine-1-carbonyl)-1H-pyrazole-3-carboxylic acid]	> 75	> 75	
O=C(O)c1ccn(C(=O)N2CCC3(CCN(Cc4cccc(C(F)(F)F)c4Cl)C3)CC2)n1 [Example 339, 1-(2-(2-chloro-3-(trifluoromethyl)benzyl)-2,8-diazaspiro[4.5]decane-8-carbonyl)-1H-pyrazole-3-carboxylic acid]	> 75	> 75	
O=C(O)c1ccn(C(=O)N2CCC3(CCN(Cc4cccc(Cl)c4C(F)(F)F)C3)CC2)n1 [Example 340, 1-(2-(3-chloro-2-(trifluoromethyl)benzyl)-2,8-diazaspiro[4.5]decane-8-carbonyl)-1H-pyrazole-3-carboxylic acid]	> 75	> 75	
Cc1c(CO[C@H]2C[C@@H]3CN(C(=O)n4cc(Cl)c(C(=O)O)n4)C[C@@H]3C2)cccc1C(F)(F)F [Example 341, 4-chloro-1-(trans-5-((2-methyl-3-(trifluoromethyl)benzyl)oxy)octa-hydrocyclopenta[c]pyrrole-2-carbonyl)-1H-pyrazole-3-carboxylic acid]	> 75	> 75	
O=C(O)c1ccn(C(=O)N2CCC3(CCN(Cc4ccc(Cl)c(N5CCCC5)c4)C3)CC2)n1 [Example 343, 1-(2-(4-chloro-3-(pyrrolidin-1-yl)benzyl)-2,8-diazaspiro[4.5]decane-8-carbonyl)-1H-pyrazole-3-carboxylic acid]	0 to 25	25 to 50	
O=C(O)c1ccn(C(=O)N2C[C@H]3C[C@H](OCc4ccc(Cl)c(-c5nccs5)c4)C[C@H]3C2)n1 [Example 345, 1-(trans-5-((4-chloro-3-(thiazol-2-yl)benzyl)oxy)octa-hydrocyclopenta[c]pyrrole-2-carbonyl)-1H-pyrazole-3-carboxylic acid]	> 75	> 75	
Cc1cn(C(=O)N2CCN(Cc3cc(F)cc(Oc4ccc(Cl)cc4)c3)CC2)nc1C(=O)O [Example 346, 1-(4-(3-(4-chlorophenoxy)-5-fluorobenzyl)piper-azine-1-carbonyl)-4-methyl-1H-pyrazole-3-carboxylic acid]	> 75	> 75	
C[C@@H]1CN(Cc2cc(F)cc(Oc3ccc(Cl)cc3)c2)CCN1C(=O)n1ccc(C(=O)O)n1 [Example 348, (R)-1-(4-(3-(4-chlorophenoxy)-5-fluorobenzyl)-2-methylpiperazine-1-carbonyl)-1H-pyrazole-3-carboxylic acid]	> 75	> 75	
C[C@H]1CN(Cc2cc(F)cc(Oc3ccccc3Cl)c2)CCN1C(=O)n1ccc(C(=O)O)n1 [Example 349, (S)-1-(4-(3-(2-chlorophenoxy)-5-fluorobenzyl)-2-methylpiperazine-1-carbonyl)-1H-pyrazole-3-carboxylic acid]	> 75	> 75	
C[C@@H]1CN(Cc2cc(F)cc(Oc3ccccc3Cl)c2)CCN1C(=O)n1ccc(C(=O)O)n1 [Example 350, (R)-1-(4-(3-(2-chlorophenoxy)-5-fluorobenzyl)-2-methylpiperazine-1-carbonyl)-1H-pyrazole-3-carboxylic acid]	> 75	> 75	
C[C@@H]1CN(Cc2ccc(-c3ccccc3)cc2C(F)(F)F)CCN1C(=O)n1ccc(C(=O)O)n1 [Example 351, (R)-1-(2-methyl-4-((3-(trifluoromethyl)-[1,1′-biphenyl]-4-yl)methyl)piperazine-1-carbonyl)-1H-pyrazole-3-carboxylic acid]	> 75	> 75	
O=C(O)c1ccn(C(=O)N2CCN(Cc3cccc(Oc4cnccc4C(F)(F)F)c3)CC2)n1 [Example 352, 1-(4-(3-((4-(trifluoromethyl)pyridin-3-yl)oxy)benzyl)piper-azine-1-carbonyl)-1H-pyrazole-3-carboxylic acid]	> 75	> 75	
O=C(O)c1ccn(C(=O)N2CCN(Cc3cccc(Oc4cccc(C(F)(F)F)n4)c3)CC2)n1 [Example 353, 1-(4-(3-((6-(trifluoromethyl)pyridin-2-yl)oxy)benzyl)piper-azine-1-carbonyl)-1H-pyrazole-3-carboxylic acid]	> 75	> 75	
O=C(O)c1ccn(C(=O)N2CCN(Cc3cccc(Oc4ccc(C(F)(F)F)nc4)c3)CC2)n1 [Example 354, 1-(4-(3-((6-(trifluoromethyl)pyridin-3-yl)oxy)benzyl)piper-azine-1-carbonyl)-1H-pyrazole-3-carboxylic acid]	> 75	> 75	
O=C(O)c1ccn(C(=O)N2CCN(Cc3cccc(Oc4ccnc(C(F)(F)F)c4)c3)CC2)n1 [Example 355, 1-(4-(3-((2-(trifluoromethyl)pyridin-4-yl)oxy)benzyl)piper-azine-1-carbonyl)-1H-pyrazole-3-carboxylic acid]	> 75	> 75	
O=C(O)c1nn(C(=O)N2CC3CN(Cc4cc(Cl)cc(C(F)(F)F)c4)CC3C2)cc1Cl (stereo not shown) [Example 357, 4-chloro-1-(5-(3-chloro-5-(trifluoromethyl)benzyl)octahydro-pyrrolo[3,4-c]pyrrole-2-carbonyl)-1H-pyrazole-3-carboxylic acid]	> 75	> 75	
O=C(O)c1ccn(C(=O)N2CCC3(CCN(Cc4cccc(-c5ccccc5)c4Cl)C3)CC2)n1 [Example 358, 1-(2-((2-chloro-[1,1′-biphenyl]-3-yl)methyl)-2,8-diazaspiro[4.5]decane-8-carbonyl)-1H-pyrazole-3-carboxylic acid]	> 75	> 75	
CC1(NCc2ccc(C(F)(F)F)cc2N2CCCC2)CCN(C(=O)n2ccc(C(=O)O)n2)CC1 [Example 361, 1-(4-methyl-4-((2-(pyrrolidin-1-yl)-4-(trifluoromethyl)benzyl)amino)piper-idine-1-carbonyl)-1H-pyrazole-3-carboxylic acid]	> 75	> 75	
CN(Cc1ccc(C(F)(F)F)cc1N1CCC1)C1(C)CCN(C(=O)n2ccc(C(=O)O)n2)CC1 [Example 362, 1-(4-((2-(azetidin-1-yl)-4-(trifluoromethyl)benzyl)(methyl)amino)-4-methylpiperidine-1-carbonyl)-1H-pyrazole-3-carboxylic acid]	> 75	> 75	
O=C(O)c1ccn(C(=O)N2C[C@H]3C[C@@H](NCc4ccc(Oc5ccc(Cl)cc5)cc4)C[C@H]3C2)n1 [Example 363, 1-(cis-5-((4-(4-chlorophenoxy)benzyl)amino)octa-hydrocyclopenta[c]pyrrole-2-carbonyl)-1H-pyrazole-3-carboxylic acid]	0 to 25	0 to 25	
O=C(O)c1ccn(C(=O)N2CCC3(CCN(C(=O)c4cc(Cl)ccc4C(F)(F)F)C3)CC2)n1 [Example 366, 1-(2-(5-chloro-2-(trifluoromethyl)benzoyl)-2,8-diazaspiro[4.5]decane-8-carbonyl)-1H-pyrazole-3-carboxylic acid]	0 to 25		> 75
O=C(O)c1nn(C(=O)N2CCN(Cc3ccc(N4CCCC4)cc3C(F)(F)F)CC2)cc1Cl [Example 368, 4-chloro-1-(4-(4-(pyrrolidin-1-yl)-2-(trifluoromethyl)benzyl)piperazine-1-carbonyl)-1H-pyrazole-3-carboxylic acid]	> 75	> 75	
O=C(O)c1nn(C(=O)N2C[C@H]3C[C@H](Oc4cccc(-c5ccccc5)c4)C[C@H]3C2)cc1C(F)(F)F [Example 369, 1-(trans-5-([1,1′-biphenyl]-3-yloxy)octahydro-cyclopenta[c]pyrrole-2-carbonyl)-4-(trifluoromethyl)-1H-pyrazole-3-carboxylic acid]	> 75	> 75	
O=C(O)c1ccn(C(=O)N2CCC3(CCN(Cc4cc(Cl)ccc4OC(F)(F)F)C3)CC2)n1 [Example 371, 1-(2-(5-chloro-2-(trifluoromethoxy)benzyl)-2,8-diazaspiro[4.5]decane-8-carbonyl)-1H-pyrazole-3-carboxylic acid]	> 75	> 75	
